Data taken from patent publication US11224565B2, “N-acyldipeptide derivatives and their uses” (NeoStrata Company, Inc., priority 2011, dated 2022).
Peptide text beside a SMILES is read from it.

Experiments:
Type in all cases: in vivo, human
[1] = test system: fungal infections of two toe nails; test: Topical treatment of fungal infections of toe nails; details: twice daily, after several weeks; 0.5% (w/v) N-Ac-L-Tyr-L-Tyr-NH2 in WEP442 pH 6.7 on one nail, 0.5% (w/v) N-Ac-L-Tyr-L-Tyr-NHNHAc in WEP442 pH 5.5 on another
From the text: A subject had fungal infections of two toe nails for many years. Topical treatments with clotrimazole and salicylic acid with or without glycolic acid had not been successful, as shown by the persistent appearance of white and sandy nail plates. The subject topically applied twice daily to one infected nail plate, 0.5% (w/v) N—Ac-L-Tyr-L-Tyr-NH2 in WEP442, pH 6.7 (Example 5), and to another infected nail plate, 0.5% (w/v) N—Ac-L-Tyr-L-Tyr-NHNHAc in WEP442, pH 5.5 (Example 5) for several months. […] Continued topical applications of the formulations should eradicate the nail infections, and the toe nails should start to grow normally.

[2] = test system: Deranged immune disorders and inflammation; test: Summary of test results in volunteer subjects: deranged immune disorders and inflammation; details: efficacy grade
Method in brief: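 Volunteers applied N-acyldipeptide derivatives topically once or twice daily for several weeks or until lesions cleared. Compounds were dissolved in water/ethanol/propylene glycol (40:40:20) or ethanol/propylene glycol (80:20), or in water/propylene glycol (80:20) mixed into an oil-in-water cream. Vehicle control applied twice daily.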

Disturbed keratinization = test: Summary of test results in volunteer subjects: disturbed keratinization; details: efficacy grade
Method in brief: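 Volunteers applied N-acyldipeptide derivatives dissolved in water/ethanol/propylene glycol 40:40:20, ethanol/propylene glycol 80:20, or water/propylene glycol 80:20 mixed into oil-in-water cream, on involved skin once or twice daily for several weeks or until clearing. Vehicle applied twice daily as control; disturbed keratinization lesions assessed clinically.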

Nerve disorders = test: Summary of test results in volunteer subjects: nerve disorders; details: efficacy grade
Method in brief: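 Volunteers applied N-acyldipeptide derivatives dissolved in water/ethanol/propylene glycol (40:40:20), ethanol/propylene glycol (80:20), or water/propylene glycol (80:20) mixed into cream, once or twice daily for several weeks or until lesions cleared. Vehicle control applied twice daily; application also over arthritic joints or painful muscles.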

[3] = test system: Aging related changes of skin, nail and hair; test: Summary of test results in volunteer subjects: aging related changes; details: efficacy grade
[4] = test system: inflammation, dermatitis, or eczema lesions; test: Topical application to chronic inflammation, dermatitis, eczema or allergic skin lesions, clinical evaluation; details: for skin color of treated skin compared to surrounding untreated skin: 4 weeks, 0.5% N-Ac-L-Tyr-L-Tyr-NH2 solution or 0.4% N-Ac-L-Val-L-Ala-NH2 in WEP442
From the text: In another embodiment, the volunteer subject topically applied the test compositions containing N-acyldipeptide derivatives of the present invention on involved skin or lesions once or twice daily for several weeks or until the involved lesions completely cleared and clinically changed to normal skin. As a control study, the subject also topically applied a vehicle control composition on the involved skin or lesions twice daily for the same period.

[5] = chronic eczema right leg, twice daily
[6] = chronic eczema right leg, twice daily, 0.5% (w/v) N-Ac-L-Tyr-L-Tyr-NH2 solution pH 6.7 on one lesion, 0.4% (w/v) N-Ac-L-Val-L-Ala-NH2 in WEP442 pH 5.8 on second
[7] = chronic eczema of legs, twice daily, 2% (w/v) N-Ac-L-Val-L-Ala-NH2 cream on one leg, 0.5% (w/w) N-Ac-L-Tyr-L-Tyr-NHNHAc in WEP442 pH 5.5 on the other

## CC(=O)N[C@@H](Cc1ccc(O)cc1)C(=O)N[C@@H](Cc1ccc(O)cc1)C(N)=O [N-Ac-L-Tyr-L-Tyr-NH2] (Ac-Tyr-Tyr-NH2)
[1]
  white and sandy appearance of infected nail plates: started to change gradually
[2]
  DI: 4+ (4+: 95-100% Efficacy)
Disturbed keratinization
  DK: 4+ (4+: 95-100% Efficacy)
Nerve disorders
  ND: 4+ (4+: 95-100% Efficacy)
[3]
  AG: 4+ (4+: 95-100% Efficacy)
[4]; [5]
  skin color of treated skin compared to surrounding untreated skin: much lighter in skin color
[4]; [6]
  itch after topical application: stopped within a few minutes

## CC(=O)NNC(=O)[C@H](Cc1ccc(O)cc1)NC(=O)[C@H](Cc1ccc(O)cc1)NC(C)=O [N-Ac-L-Tyr-L-Tyr-NHNHAc]
[1]
  white and sandy appearance of infected nail plates: started to change gradually
[2]
  DI: 4+ (4+: 95-100% Efficacy)
Disturbed keratinization
  DK: 4+ (4+: 95-100% Efficacy)
Nerve disorders
  ND: 4+ (4+: 95-100% Efficacy)
[3]
  AG: 3+ (3+: 75% Efficacy)
[4]; [7]
  itch after topical application: stopped within a few minutes
[4]; chronic eczema, twice daily, two weeks, 0.6% (w/w) N-Ac-L-Tyr-L-Tyr-NHNH2 cream on one set of lesions, 0.7% (w/w) N-Ac-L-Tyr-L-Tyr-NHNHAc cream on another
  improvement as judged by clinical evaluation: 100%
[4]; chronic eczema, twice daily, 0.6% (w/w) N-Ac-L-Tyr-L-Tyr-NHNH2 cream on one set of lesions, 0.7% (w/w) N-Ac-L-Tyr-L-Tyr-NHNHAc cream on another
  itch after topical application: stopped immediately

## CC(=O)N[C@H](C(=O)N[C@@H](C)C(N)=O)C(C)C [N-Ac-L-Val-L-Ala-NH2] (Ac-Val-Ala-NH2)
[2]
  DI: 4+ (4+: 95-100% Efficacy)
Disturbed keratinization
  DK: 4+ (4+: 95-100% Efficacy)
Nerve disorders
  ND: 4+ (4+: 95-100% Efficacy)
[3]
  AG: 4+ (4+: 95-100% Efficacy)
[4]; 0.5% (w/w) cream twice daily, skin allergy from shellfish with reddish papules
  itch after topical application: stopped within a few minutes
[4]; 0.5% (w/w) cream twice daily, skin allergy from shellfish, end of 5 days
  improvement as judged by clinical evaluation: 75%
[4]; [7]
  itch after topical application: stopped within a few minutes
[4]; [5]
  skin color of treated skin compared to surrounding untreated skin: much lighter in skin color
[4]; [6]
  itch after topical application: stopped within a few minutes
